“And” between values parts separate entries of the source, which are not always exact repeats. Identical values can stand only once. Each block holds one compound with its values, some of them ahead of it.
Tested on: 362531-283-R-J2-PDC complex spheroid viability
Experiment: Anticancer human tumor 362531-283-R-J2-PDC patient-derived colon adenocarcinoma cell line growth inhibition [RAS]
Details: for viability, T/C: stronger effect = lower value
Method in brief: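 Multi-cell-type spheroids: tumor cells plus HUVEC endothelial cells and mesenchymal stem cells. RAS-pathway inhibitors were combined with targeted agents, each dosed in half-log steps down from clinical Cmax, or from 10 microM when Cmax was unknown.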

[1] = curve of first compound, second compound 0.000949 µM
[2] = curve of first compound, second compound 0.003 µM
[3] = curve of first compound, second compound 0.00949 µM
[4] = curve of first compound, second compound 0.03 µM
[5] = curve of first compound, second compound 0.0949 µM
[6] = curve of first compound, second compound 0.3 µM
[7] = second compound 0.000949 µM, first compound 0.0316 µM
[8] = second compound 0.000949 µM, first compound 0.1 µM
[9] = second compound 0.000949 µM, first compound 0.316 µM
[10] = second compound 0.000949 µM, first compound 1 µM
[11] = second compound 0.003 µM, first compound 0.0316 µM
[12] = second compound 0.003 µM, first compound 0.1 µM
[13] = second compound 0.003 µM, first compound 0.316 µM
[14] = second compound 0.003 µM, first compound 1 µM
[15] = second compound 0.00949 µM, first compound 0.0316 µM
[16] = second compound 0.00949 µM, first compound 0.1 µM
[17] = second compound 0.00949 µM, first compound 0.316 µM
[18] = second compound 0.00949 µM, first compound 1 µM
[19] = second compound 0.03 µM, first compound 0.0316 µM
[20] = second compound 0.03 µM, first compound 0.1 µM
[21] = second compound 0.03 µM, first compound 0.316 µM
[22] = second compound 0.03 µM, first compound 1 µM
[23] = second compound 0.0949 µM, first compound 0.0316 µM
[24] = second compound 0.0949 µM, first compound 0.1 µM
[25] = second compound 0.0949 µM, first compound 0.316 µM
[26] = second compound 0.0949 µM, first compound 1 µM
[27] = second compound 0.3 µM, first compound 0.0316 µM
[28] = second compound 0.3 µM, first compound 0.1 µM
[29] = second compound 0.3 µM, first compound 0.316 µM
[30] = second compound 0.3 µM, first compound 1 µM
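Also: spheroids exposed to the agents for 7 days before readout.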
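For viability, T/C in this document: luminescence viability as percent of DMSO vehicle control wells.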

IC50 [1]: > 1000 nM | IC50 [2]: > 1000 nM | IC50 [3]: 606 nM | IC50 [4]: 464 nM | IC50 [5]: 129 nM | IC50 [6]: < 3.16 nM
SMILES: C=CC(=O)Nc1cc(Nc2nccc(-c3cn(C)c4ccccc34)n2)c(OC)cc1N(C)CCN(C)C + CCn1c(-c2cc(N3CCN(C)CC3)cnc2C(C)OC)c2c3cc(ccc31)-c1csc(n1)CC(NC(=O)C1CC1C)C(=O)N1CCCC(N1)C(=O)OCC(C)(C)C2
viability, T/C (second compound 0.000949 µM, first compound 0.00316 µM): 87.5% | viability, T/C (second compound 0.000949 µM, first compound 0.01 µM): 104% | viability, T/C [7]: 91.4% | viability, T/C [8]: 88% | viability, T/C [9]: 98.2% | viability, T/C [10]: 65.6% | viability, T/C (second compound 0.003 µM, first compound 0.00316 µM): 97.7% | viability, T/C (second compound 0.003 µM, first compound 0.01 µM): 94.6% | viability, T/C [11]: 94.6% | viability, T/C [12]: 89.3% | viability, T/C [13]: 91.9% | viability, T/C [14]: 63.1% | viability, T/C (second compound 0.00949 µM, first compound 0.00316 µM): 93.3% | viability, T/C (second compound 0.00949 µM, first compound 0.01 µM): 115% | viability, T/C [15]: 81.1% | viability, T/C [16]: 78.9% | viability, T/C [17]: 80.4% | viability, T/C [18]: 31.4% | viability, T/C (second compound 0.03 µM, first compound 0.00316 µM): 92.2% | viability, T/C (second compound 0.03 µM, first compound 0.01 µM): 91.8% | viability, T/C [19]: 83% | viability, T/C [20]: 85.6% | viability, T/C [21]: 69.6% | viability, T/C [22]: 11.8% | viability, T/C (second compound 0.0949 µM, first compound 0.00316 µM): 81.3% | viability, T/C (second compound 0.0949 µM, first compound 0.01 µM): 75.4% | viability, T/C [23]: 76.5% | viability, T/C [24]: 59.2% | viability, T/C [25]: 18.5% | viability, T/C [26]: 10.8% | viability, T/C (second compound 0.3 µM, first compound 0.00316 µM): 42.3% | viability, T/C (second compound 0.3 µM, first compound 0.01 µM): 38.4% | viability, T/C [27]: 32.7% | viability, T/C [28]: 23% | viability, T/C [29]: 10.8% | viability, T/C [30]: 8.2%

IC50 [1]: 4520 nM | IC50 [2]: 4500 nM | IC50 [3]: 4340 nM | IC50 [4]: 4720 nM | IC50 [5]: 4680 nM | IC50 [6]: 4950 nM
SMILES: CCC(CC)c1cc(NC2CCC(N)C2)n2nccc2n1 (stereo unspecified) + CCn1c(-c2cccnc2C(C)OC)c2c3cc(ccc31)N1CCOC(CC(NC(=O)C(C(C)C)N(C)C(=O)C3(F)CCN(C(=O)C#CC(C)(C)N(C)C)CC3)C(=O)N3CCCC(N3)C(=O)OCC(C)(C)C2)C1
viability, T/C [7]: 99.5% | viability, T/C [8]: 111% | viability, T/C [9]: 98.1% | viability, T/C [10]: 98.4% | viability, T/C (second compound 0.000949 µM, first compound 3.16 µM): 70.5% | viability, T/C (second compound 0.000949 µM, first compound 10 µM): 3.98% | viability, T/C [11]: 105% | viability, T/C [12]: 101% | viability, T/C [13]: 99.9% | viability, T/C [14]: 101% | viability, T/C (second compound 0.003 µM, first compound 3.16 µM): 70.8% | viability, T/C (second compound 0.003 µM, first compound 10 µM): 3.44% | viability, T/C [15]: 103% | viability, T/C [16]: 116% | viability, T/C [17]: 97.9% | viability, T/C [18]: 96.5% | viability, T/C (second compound 0.00949 µM, first compound 3.16 µM): 67.2% | viability, T/C (second compound 0.00949 µM, first compound 10 µM): 3.91% | viability, T/C [19]: 102% | viability, T/C [20]: 104% | viability, T/C [21]: 95.8% | viability, T/C [22]: 89% | viability, T/C (second compound 0.03 µM, first compound 3.16 µM): 76.8% | viability, T/C (second compound 0.03 µM, first compound 10 µM): 4.25% | viability, T/C [23]: 94.3% | viability, T/C [24]: 102% | viability, T/C [25]: 93.7% | viability, T/C [26]: 94.8% | viability, T/C (second compound 0.0949 µM, first compound 3.16 µM): 73.7% | viability, T/C (second compound 0.0949 µM, first compound 10 µM): 4.42% | viability, T/C [27]: 99.2% | viability, T/C [28]: 105% | viability, T/C [29]: 100% | viability, T/C [30]: 91.8% | viability, T/C (second compound 0.3 µM, first compound 3.16 µM): 80.8% | viability, T/C (second compound 0.3 µM, first compound 10 µM): 4.23%

IC50 (curve of compound): 53.9 nM and > 100 nM and 75.8 nM
SMILES: CC(C)n1nc(-c2ccc3oc(N)nc3c2)c2c(N)ncnc21
viability, T/C (compound 0.000316 µM): 103% [middle of 4 runs] | viability, T/C (compound 0.001 µM): 99.1% [middle of 4 runs] | viability, T/C (compound 0.00316 µM): 101% [middle of 4 runs] | viability, T/C (compound 0.0316 µM): 63.5% [middle of 4 runs]

IC50 [1]: > 300 nM | IC50 [2]: > 300 nM | IC50 [3]: > 300 nM | IC50 [4]: > 300 nM | IC50 [5]: > 300 nM | IC50 [6]: > 300 nM
SMILES: CC1(C)CCC(Nc2ncc(C(F)(F)F)c(-c3c[nH]c4c(P(C)(C)=O)c(C#N)ccc34)n2)CN1 (stereo unspecified) + CCn1c(-c2cccnc2C(C)OC)c2c3cc(ccc31)N1CCOC(CC(NC(=O)C(C(C)C)N(C)C(=O)C3(F)CCN(C(=O)C#CC(C)(C)N(C)C)CC3)C(=O)N3CCCC(N3)C(=O)OCC(C)(C)C2)C1
viability, T/C (second compound 0.000949 µM, first compound 0.000949 µM): 105% | viability, T/C (second compound 0.000949 µM, first compound 0.003 µM): 99.2% | viability, T/C (second compound 0.000949 µM, first compound 0.00949 µM): 102% | viability, T/C (second compound 0.000949 µM, first compound 0.03 µM): 98.3% | viability, T/C (second compound 0.000949 µM, first compound 0.0949 µM): 108% | viability, T/C (second compound 0.000949 µM, first compound 0.3 µM): 99.1% | viability, T/C (second compound 0.003 µM, first compound 0.000949 µM): 110% | viability, T/C (second compound 0.003 µM, first compound 0.003 µM): 99.3% | viability, T/C (second compound 0.003 µM, first compound 0.00949 µM): 98% | viability, T/C (second compound 0.003 µM, first compound 0.03 µM): 92.6% | viability, T/C (second compound 0.003 µM, first compound 0.0949 µM): 107% | viability, T/C (second compound 0.003 µM, first compound 0.3 µM): 89.1% | viability, T/C (second compound 0.00949 µM, first compound 0.000949 µM): 97.5% | viability, T/C (second compound 0.00949 µM, first compound 0.003 µM): 102% | viability, T/C (second compound 0.00949 µM, first compound 0.00949 µM): 87.3% | viability, T/C (second compound 0.00949 µM, first compound 0.03 µM): 105% | viability, T/C (second compound 0.00949 µM, first compound 0.0949 µM): 102% | viability, T/C (second compound 0.00949 µM, first compound 0.3 µM): 104% | viability, T/C (second compound 0.03 µM, first compound 0.000949 µM): 98.5% | viability, T/C (second compound 0.03 µM, first compound 0.003 µM): 110% | viability, T/C (second compound 0.03 µM, first compound 0.00949 µM): 95.9% | viability, T/C (second compound 0.03 µM, first compound 0.03 µM): 98.9% | viability, T/C (second compound 0.03 µM, first compound 0.0949 µM): 100% | viability, T/C (second compound 0.03 µM, first compound 0.3 µM): 91.3% | viability, T/C (second compound 0.0949 µM, first compound 0.000949 µM): 86.8% | viability, T/C (second compound 0.0949 µM, first compound 0.003 µM): 99.5% | viability, T/C (second compound 0.0949 µM, first compound 0.00949 µM): 103% | viability, T/C (second compound 0.0949 µM, first compound 0.03 µM): 95.2% | viability, T/C (second compound 0.0949 µM, first compound 0.0949 µM): 103% | viability, T/C (second compound 0.0949 µM, first compound 0.3 µM): 107% | viability, T/C (second compound 0.3 µM, first compound 0.000949 µM): 96.8% | viability, T/C (second compound 0.3 µM, first compound 0.003 µM): 102% | viability, T/C (second compound 0.3 µM, first compound 0.00949 µM): 94.1% | viability, T/C (second compound 0.3 µM, first compound 0.03 µM): 98.5% | viability, T/C (second compound 0.3 µM, first compound 0.0949 µM): 101% | viability, T/C (second compound 0.3 µM, first compound 0.3 µM): 94.9%
